Laboratory results as given in patent publication US12568969B2, “Pyridine compounds for controlling invertebrate pests” (FMC Corporation, priority 2020, dated 2026).

What was measured:
Type in all cases: in vivo
[1] = tested on: green peach aphid (Myzus persicae (Sulzer)); experiment: Test D: control of green peach aphid on radish plant, spray; conditions: Myzus persicae, 144 h, 6 days; for mortality at 250 ppm: sprayed at 250 ppm; for mortality at 50 ppm: sprayed at 50 ppm
Procedure: (§1) Test compounds were formulated using a solution containing 10% acetone, […] and 300 ppm Activator 909 non-ionic surfactant (Loveland Products, Loveland, Colorado, USA). The formulated compounds were applied in 1 mL of liquid through an atomizer nozzle positioned 1.27 cm (0.5 inches) above the top of each test unit. Test compounds were sprayed at the rates indicated, and each test was replicated three times.
For evaluating control of green peach aphid (Myzus persicae (Sulzer)) through contact and/or systemic means, the test unit consisted of a small open container with a 12-15-day-old radish plant inside. This was pre-infested by placing on a leaf of the test plant 30-40 aphids on a piece of leaf excised from a culture plant (cut-leaf method). The aphids moved onto the test plant as the leaf piece desiccated. After pre-infestation, the soil of the test unit was covered with a layer of sand.
[…] After spraying of the formulated test compound, each test unit was allowed to dry for 1 hour and then a black, screened cap was placed on top. The test units were held for 6 days in a growth chamber at 19-21° C. and 50-70% relative humidity. Each test unit was then visually assessed for insect mortality.

[2] = tested on: cotton melon aphid (Aphis gossypii (Glover)); experiment: whole plant or invertebrate; conditions: Aphis gossypii, 144 h, 6 days; for mortality at 50 ppm: sprayed at 50 ppm; for mortality at 250 ppm: sprayed at 250 ppm
Procedure: as §1
[…] This was pre-infested with 30-40 insects on a piece of leaf according to the cut-leaf method, and the soil of the test unit was covered with a layer of sand.
Test compounds were formulated and sprayed at 250 and/or 50 ppm. After spraying, the test units were maintained in a growth chamber for 6 days at 19° C. and 70% relative humidity. Each test unit was then visually assessed for insect mortality.

[3] = tested on: sweetpotato whitefly (Bemisia tabaci (Gennadius)); experiment: Test F: control of sweetpotato whitefly on cotton plant, spray; conditions: 312 h, 13 days; for mortality at 50 ppm: sprayed at 50 ppm; for mortality at 250 ppm: sprayed at 250 ppm
Procedure: as §1
For evaluating control of the sweetpotato whitefly (Bemisia tabaci (Gennadius)) through contact and/or systemic means, the test unit consisted of a small open container with a 12-14-day-old cotton plant inside. Prior to the spray application, both cotyledons were removed from the plant, leaving one true leaf for the assay. Adult whiteflies were allowed to lay eggs on the plant and then were removed from the test unit. Cotton plants infested with at least 15 eggs were submitted to the test for spraying.
Test compounds were formulated and sprayed at 250 and/or 50 ppm. After spraying, the test units were allowed to dry for 1 hour. The cylinders were then removed, and the units were taken to a growth chamber and held for 13 days at 28° C. and 50-70% relative humidity. Each test unit was then visually assessed for insect mortality.

[4] = tested on: corn planthopper (Peregrinus maidis (Ashmead)); experiment: whole plant or invertebrate; conditions: Peregrinus maidis, 144 h, 6 days; for mortality at 50 ppm: sprayed at 50 ppm; for mortality at 250 ppm: sprayed at 250 ppm; for mortality at 10 ppm: sprayed at 10 ppm
Procedure: as §1
For evaluating control of corn planthopper (Peregrinus maidis (Ashmead)) through contact and/or systemic means, the test unit consisted of a small open container with a 3-4-day-old corn (maize) plant inside. White sand was added to the top of the soil prior to application of the test compound.
Test compounds were formulated and sprayed at 250 and/or 50 ppm and/or 10 ppm. After spraying of the formulated test compound, the test units were allowed to dry for 1 h before they were post-infested with ˜15-20 nymphs (18-to-21-day-old). A black, screened cap was placed on the top of each test unit, and the test units were held for 6 days in a growth chamber at 22-24° C. and 50-70% relative humidity. Each test unit was then visually assessed for insect mortality.

[5] = tested on: diamondback moth (Plutella xylostella (L.)); experiment: Test A: control of diamondback moth on mustard plant, spray; conditions: sprayed at 250 ppm; assessed after 6 days
Procedure: as §1
For evaluating control of diamondback moth (Plutella xylostella (L.)) the test unit consisted of a small open container with a 12-14-day-old mustard plant inside. This was pre-infested with ˜50 neonate larvae that were dispensed into the test unit via corn cob grits using an inoculator. The larvae moved onto the test plant after being dispensed into the test unit.
Test compounds were formulated and sprayed at 250 ppm. After spraying of the formulated test compound, each test unit was allowed to dry for 1 hour and then a black, screened cap was placed on top. The test units were held for 6 days in a growth chamber at 25° C. and 70% relative humidity. Plant feeding damage was then visually assessed based on foliage consumed, and larvae were assessed for mortality.

SMILES: FC(c1ccc(OC(F)(F)F)cc1)c1c(Cl)cncc1-n1cccn1 (stereo not drawn) [Compound 88]
- mortality at 250 ppm [1]: ≥ 80%
- mortality at 50 ppm [2]: ≥ 80%
- mortality at 250 ppm [2]: ≥ 80%
- mortality at 50 ppm [3]: ≥ 70%
- mortality at 250 ppm [3]: ≥ 70%
- mortality at 50 ppm [4]: ≥ 80%
- mortality at 250 ppm [4]: ≥ 80%

SMILES: [O-][S+](c1ccc(C(F)c2c(Cl)cncc2-n2nccn2)cc1)C(F)(F)F (stereo not drawn) [Compound 90]
- mortality at 50 ppm [1]: ≥ 80%
- mortality at 250 ppm [1]: ≥ 80%
- mortality at 50 ppm [2]: ≥ 80%
- mortality at 250 ppm [2]: ≥ 80%
- mortality at 50 ppm [3]: ≥ 70%
- mortality at 250 ppm [3]: ≥ 70%
- mortality at 50 ppm [4]: ≥ 80%
- mortality at 250 ppm [4]: ≥ 80%

SMILES: O=S(=O)(c1ccc(C(F)c2c(Cl)cncc2-n2nccn2)cc1)C(F)(F)F (stereo not drawn) [Compound 91]
- mortality at 50 ppm [1]: ≥ 80%
- mortality at 250 ppm [1]: ≥ 80%
- mortality at 50 ppm [2]: ≥ 80%
- mortality at 250 ppm [2]: ≥ 80%
- mortality at 50 ppm [3]: ≥ 70%
- mortality at 250 ppm [3]: ≥ 70%

SMILES: FC(c1ccc(SC(F)(F)F)cc1)c1c(I)cncc1-n1nccn1 (stereo not drawn) [Compound 95]
- mortality at 50 ppm [1]: ≥ 80%
- mortality at 250 ppm [1]: ≥ 80%
- mortality at 50 ppm [2]: ≥ 80%
- mortality at 250 ppm [2]: ≥ 80%
- mortality at 50 ppm [3]: ≥ 70%
- mortality at 250 ppm [3]: ≥ 70%
- mortality at 10 ppm [4]: ≥ 80%
- mortality at 50 ppm [4]: ≥ 80%
- mortality at 250 ppm [4]: ≥ 80%

SMILES: Fc1cncc(-c2cnco2)c1C(F)c1ccc(SC(F)(F)F)cc1 (stereo not drawn) [Compound 100]
- control efficacy (40% or less feeding damage and/or 100% mortality) [5]: very good to excellent levels of control efficacy
- mortality at 50 ppm [2]: ≥ 80%
- mortality at 250 ppm [2]: ≥ 80%

SMILES: CC(C)(C)c1ccc(C(F)c2c(Br)cncc2-n2nccn2)cc1 (stereo not drawn) [Compound 108]
- mortality at 50 ppm [3]: ≥ 70%
- mortality at 250 ppm [3]: ≥ 70%
- mortality at 50 ppm [4]: ≥ 80%
- mortality at 250 ppm [4]: ≥ 80%

SMILES: FC(c1ccc(Br)cc1)c1c(Cl)cncc1-n1nccn1 (stereo not drawn) [Compound 109]
- mortality at 50 ppm [2]: ≥ 80%
- mortality at 250 ppm [2]: ≥ 80%
- mortality at 50 ppm [3]: ≥ 70%
- mortality at 250 ppm [3]: ≥ 70%
- mortality at 10 ppm [4]: ≥ 80%
- mortality at 50 ppm [4]: ≥ 80%
- mortality at 250 ppm [4]: ≥ 80%

SMILES: COC(c1ccc(SC(F)(F)F)cc1)c1c(Cl)cncc1-n1nccn1 (stereo not drawn) [Compound 127]
- mortality at 50 ppm [1]: ≥ 80%
- mortality at 250 ppm [1]: ≥ 80%
- mortality at 50 ppm [2]: ≥ 80%
- mortality at 250 ppm [2]: ≥ 80%
- mortality at 50 ppm [3]: ≥ 70%
- mortality at 250 ppm [3]: ≥ 70%
- mortality at 10 ppm [4]: ≥ 80%
- mortality at 50 ppm [4]: ≥ 80%
- mortality at 250 ppm [4]: ≥ 80%

SMILES: FC(c1ccc2c(c1)OC(F)(F)O2)c1c(Br)cncc1-n1nccn1 (stereo not drawn) [Compound 147]
- control efficacy (40% or less feeding damage and/or 100% mortality) [5]: very good to excellent levels of control efficacy

SMILES: COC(c1ccc2c(c1)OC(F)(F)O2)c1c(F)cncc1-n1cccn1 (stereo not drawn) [Compound 155]
- control efficacy (40% or less feeding damage and/or 100% mortality) [5]: very good to excellent levels of control efficacy

SMILES: Fc1cncc(-n2cccn2)c1C(F)c1cnc(C(F)(F)F)nc1 (stereo not drawn) [Compound 162]
- control efficacy (40% or less feeding damage and/or 100% mortality) [5]: very good to excellent levels of control efficacy

SMILES: Fc1cncc(-n2nccn2)c1C(F)c1ccc(Br)nc1 (stereo not drawn) [Compound 166]
- control efficacy (40% or less feeding damage and/or 100% mortality) [5]: very good to excellent levels of control efficacy

SMILES: Fc1cncc(-n2cccn2)c1C(F)c1ccc(C(F)(F)F)cn1 (stereo not drawn) [Compound 171]
- control efficacy (40% or less feeding damage and/or 100% mortality) [5]: very good to excellent levels of control efficacy

SMILES: Fc1cncc(-n2nccn2)c1C(F)c1ccc(C(F)(F)F)cn1 (stereo not drawn) [Compound 172]
- control efficacy (40% or less feeding damage and/or 100% mortality) [5]: very good to excellent levels of control efficacy

SMILES: COC(c1ccc(OC(F)(F)F)cc1)c1ncncc1-n1nccn1 (stereo not drawn) [Compound 175]
- control efficacy (40% or less feeding damage and/or 100% mortality) [5]: very good to excellent levels of control efficacy
